From patent publication US20200405752A1, “ANTITUMOR AGENT, ANTITUMOR EFFECT ENHANCER, AND ANTITUMOR KIT” (FUJIFILM Corporation, priority 2018, published 2020)
pIC50: −log10 of the molar value. Where two headings read alike, the source gives them in different places.

What was measured:
[1] = system: pancreatic cancer patient; details: cited from earlier work
[2] = system: human ovarian cancer cell line ES-2; experiment: Cell viability (CellTiter Glo) of ES-2 in combination with cisplatin or carboplatin; format: cell-based; details: for CI: ES-2 Cell; for viability at 0.001 µM / viability at 0.003 µM / viability at 0.01 µM / viability at 0.03 µM / viability at 0.1 µM / viability at 0.3 µM / viability at 1 µM / viability at 3 µM / viability at 10 µM / pIC50: Homo sapiens; for viability at 0.001 µM / viability at 0.003 µM / viability at 0.01 µM / viability at 0.03 µM / viability at 0.1 µM / viability at 0.3 µM / viability at 1 µM / viability at 3 µM / viability at 10 µM: 72 h, 3 days; for viability at 0.001 µM: test substance 1 nM; for viability at 0.003 µM: test substance 3 nM; for viability at 0.01 µM: test substance 10 nM; for viability at 0.03 µM: test substance 30 nM; for viability at 0.1 µM: test substance 100 nM; for viability at 0.3 µM: test substance 300 nM; for viability at 1 µM: test substance 1000 nM; for viability at 3 µM: test substance 3000 nM; for viability at 10 µM: test substance 10000 nM
Excerpt: On the combinational effect of the embodiment of the invention, the results of evaluation using a combination index (CI) which is a quantitative index of the combinational effect are shown. The CI can be calculated by the following equation according to Cancer Research, 2010, Vol. 70, pp. 440 to 446.
That is, in a case where the drugs to be used in combination are drug 1 and drug 2, the CI at a certain drug concentration is
CI={(cell viability in case of using drug 1 and drug 2 in combination)/100}/{[(cell viability in case of using drug 1)/100]×[(cell viability in case of using drug 2)/100]}
Evaluation of antitumor activity against human ovarian cancer cell lines ES-2 and SK-OV-3 in combination with cisplatin and carboplatin
Furthermore, the antitumor activity against human ovarian cancer-derived cell lines ES-2 and SK-OV-3 in combination with cisplatin and carboplatin was evaluated in the same manner as in Test Example 1.
Gemcitabine, cisplatin, carboplatin, and methanesulfonate of Compound A were used as test substances.
Gemcitabine hydrochloride (manufactured by Plantex Co., Ltd.) dissolved in DMSO was used as gemcitabine. Cisplatin (Cat. #039-20091, manufactured by Wako Pure Chemical Industries, Ltd.) and carboplatin (Cat. #C2043, manufactured by Tokyo Chemical Industry Co., Ltd.), each of which dissolved in McCoy's 5a medium (Cat. #16600-082, manufactured by Thermo Fisher Scientific Inc.) supplemented with 1% serum (Cat. #10437-028, manufactured by Thermo Fisher Scientific Inc.), were used as cisplatin and carboplatin, respectively.
Human ovarian cancer cell line ES-2 and SK-OV-3 cells were subcultured in 10% serum-supplemented medium. During this test, all cell cultures were carried out in a CO2 incubator (set to 37° C. and 5% CO2, saturated with water vapor). ES-2 cells were diluted with 10% serum-supplemented medium to a cell density of 10000 cells/well/100 μL and SK-OV-3 cells were diluted with 10% serum-supplemented medium to a cell density of 15000 cells/well/100 μL, and then seeded on a 96-well plate. On the next day, the culture supernatant of each well was discarded, followed by washing twice with 150 μL of 1% serum-supplemented medium, and 100 μL of 1% serum-supplemented medium was added thereto, followed by culturing for 3 days.
The methanesulfonate of Compound A and gemcitabine were dissolved in DMSO to prepare 100 mmol/L DMSO solutions thereof. The thus-prepared DMSO solutions were diluted sequentially with DMSO to prepare DMSO solutions having a final treatment concentration of 1000-fold dilution. Cisplatin and carboplatin were dissolved in 1% serum-supplemented medium to prepare a cisplatin solution 60 μmol/L and a carboplatin solution 600 μmol/L, respectively. The DMSO diluted solutions of Compound A and gemcitabine were diluted with the cisplatin solution (60 μmol/L) or the Carboplatin solution (600 μmol/L) to prepare treatment liquids having a final treatment concentration of 6-fold dilution. Compound A and gemcitabine were used with a maximum concentration of 10 μmol/L at a common ratio of 1/3 and 9 concentrations in combination with cisplatin or Carboplatin.
20 μL of Compound A or gemcitabine diluted with the cisplatin solution (60 μmol/L) or the Carboplatin solution (600 μmol/L) was added to each well. In addition, a group in which only a solvent containing no drug was added to wells in which cells were seeded (positive control), and a group in which only a solvent containing no drug was added to wells containing only a medium (negative control) were provided. All groups were set to n=3 well.
The cells were cultured for 3 days after the addition of the drug, and the cell viability was evaluated using a CellTiter Glo (registered trademark) Reagent (Cat. #G7570, manufactured by Promega Corporation) with the intracellular ATP level as an index. […]

[3] = orally administered to mice; cited from earlier work
[4] = ES-2, used in combination with cisplatin (10 μmol/L, Table 3)
[5] = ES-2, with carboplatin 100 μmol/L
[6] = ES-2, used in combination with carboplatin (100 μmol/L, Table 6)

Nc1ccn([C@@H]2O[C@H](CO)[C@@H](O)C2(F)F)c(=O)n1 [Gemcitabine]
median survival time ([1]; combination with cisplatin): 7.5 months
response rate ([1]; combination with cisplatin): 11.5%
median survival time ([1]; combination with oxaliplatin): 5.7 months
response rate ([1]; combination with oxaliplatin): 9%
IC50 value [2, 4]: could not be calculated
CI ([2]; combination with Carboplatin): 0.9
CI ([2]; combination with Cisplatin): 1.1
viability at 0.001 µM [2, 5]: 76%
viability at 0.003 µM [2, 5]: 74%
viability at 0.01 µM [2, 5]: 71%
viability at 0.03 µM [2, 5]: 71%
viability at 0.1 µM [2, 5]: 72%
viability at 0.3 µM [2, 5]: 71%
viability at 1 µM [2, 5]: 69%
viability at 3 µM [2, 5]: 62%
viability at 10 µM [2, 5]: 48%
viability at 0.001 µM ([2]; ES-2, with cisplatin 10 μmol/L): 74%
viability at 0.003 µM ([2]; ES-2, with cisplatin 10 μmol/L): 78%
viability at 0.01 µM ([2]; ES-2, with cisplatin 10 μmol/L): 78%
viability at 0.03 µM ([2]; ES-2, with cisplatin 10 μmol/L): 79%
viability at 0.1 µM ([2]; ES-2, with cisplatin 10 μmol/L): 79%
viability at 0.3 µM ([2]; ES-2, with cisplatin 10 μmol/L): 79%
viability at 1 µM ([2]; ES-2, with cisplatin 10 μmol/L): 74%
viability at 3 µM ([2]; ES-2, with cisplatin 10 μmol/L): 65%
viability at 10 µM ([2]; ES-2, with cisplatin 10 μmol/L): 50%
pIC50 [2, 6]: ≤ 5.00

Nc1ccn([C@@H]2S[C@H](CO)[C@@H](O)[C@@H]2F)c(=O)n1 [Compound A, 1-(2-deoxy-2-fluoro-4-thio-β-D-arabinofuranosyl)cytosine]
antitumor activity [3]: potent antitumor activity
CI ([2]; combination with Carboplatin): 0.4
CI ([2]; combination with Cisplatin): 0.3
viability at 0.001 µM [2, 5]: 73%
viability at 0.003 µM [2, 5]: 70%
viability at 0.01 µM [2, 5]: 69%
viability at 0.03 µM [2, 5]: 57%
viability at 0.1 µM [2, 5]: 36%
viability at 0.3 µM [2, 5]: 28%
viability at 1 µM [2, 5]: 24%
viability at 3 µM [2, 5]: 22%
viability at 10 µM [2, 5]: 21%
viability at 0.001 µM ([2]; ES-2, with cisplatin 10 μmol/L): 78%
viability at 0.003 µM ([2]; ES-2, with cisplatin 10 μmol/L): 78%
viability at 0.01 µM ([2]; ES-2, with cisplatin 10 μmol/L): 77%
viability at 0.03 µM ([2]; ES-2, with cisplatin 10 μmol/L): 68%
viability at 0.1 µM ([2]; ES-2, with cisplatin 10 μmol/L): 37%
viability at 0.3 µM ([2]; ES-2, with cisplatin 10 μmol/L): 26%
viability at 1 µM ([2]; ES-2, with cisplatin 10 μmol/L): 23%
viability at 3 µM ([2]; ES-2, with cisplatin 10 μmol/L): 23%
viability at 10 µM ([2]; ES-2, with cisplatin 10 μmol/L): 21%
pIC50 [2, 6]: 7.34
pIC50 [2, 4]: 7.20
